Data on five compounds can be found in patent US20250304620A1, “ANTIMICROBIAL PEPTIDE AND APPLICATION THEREOF” (priority 2023, published 2025).

SMILES strings stand for the structures. Values after ≈ are worked out from the molar mass of the structure shown. Marks after values point to notes of the source that are not given here. Non-standard residues stand in square brackets, D forms with d. Residues, ends and D or L forms follow the SMILES beside them. dPhe(4-F) = N[C@H](Cc1ccc(F)cc1)C(=O)O; d2Nal = N[C@H](Cc1ccc2ccccc2c1)C(=O)O

One data set deals with rabbit red blood cells. Type of data set: cell-based. The settings on record: red cells of rabbit, 1 h.
Data set [1] has as its system Staphylococcus aureus (NRS 384). In words: microbe, parasite or virus in culture. It counts as cell-based. The settings on record: NRS 384. An outline of the steps: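 MICs were read against S. aureus strain NRS 384 using twofold serial dilution by CLSI microdilution rules. Levofloxacin and Cbf-K16 were the reference controls, and the test was repeated 5 times in parallel.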

Data set [2] relates to Shigella flexneri ATCC 12022. In words: MIC against clinically common bacterial strain. Type of data set: cell-based. An excerpt: According to the Standards of Clinical and Laboratory Standards Institute (CLSI) of the USA for antimicrobial drug susceptibility test operation standards, the micronutrient serial twofold dilution method was used further determine MICs of 30 AMPs (S/N: LV-1 to LV-30) 10 clinically common sensitive strains and 6 fungi in clinical practice. The experiment was repeated 5 times in parallel.

Data set [3] relates to Escherichia coli ATCC 25922. The data set is described as follows: Oral formulations on mice with systemic bacterial infection. The settings on record: three times a day for 7 days; for Number of mice that died on each day after infection: day 4 / Number of mice that died on each day after infection: day 5 / Number of mice that died on each day after infection: day 6 / Number of mice that died on each day after infection: day 7 / Number of mice that died on each day after infection: day 8 / Average survival times (Days): n = 10; for Average survival times (Days): observed for 14 d; for survival time of mice infected with Escherichia coli: gavage, observed 14 d. It counts as in vivo, ICR mice. As for the experimental part:
Both female and male ICR mice were used in the test, half of the female and male mice were taken and randomly assigned into groups, with 10 mice in each group, and kept in separate cages. The mice were divided into a blank control group, a negative control group, a positive control Levofloxacin group, and AMPs LV-1 to LV-30 groups. An Escherichia coli ATCC 25922 bacterial suspension was prepared, a concentration of the suspension was adjusted 1×10^7 CFU/mL for subsequent use. Except for the blank control group, all other mice were injected with the Escherichia coli suspension (0.2 mL, 1×10^7 CFU/mL), into abdominal cavity of the mice, to establish a model. After the model was successfully established, the mice were given drug immediately according to their body weights. Except for the blank control group and the negative control group, the mice in all other groups were gavaged with different compounds, three times a day for 7 consecutive days. The mice were then observed for 14 d. The death of mice in each group was observed, and survival time of the mice was recorded. Results of the effect of the oral formulations of AMPs LV-1 to LV-30 on the survival time of mice infected with Escherichia coli are shown in Table 11.

As to `CC(=O)N[C@H](CCCNC(=N)N)C(=O)N[C@H](CCCNC(=N)N)C(=O)N[C@H](CC(C)C)C(=O)N[C@H](CC(C)C)C(=O)N[C@H](Cc1ccc2ccccc2c1)C(=O)N[C@H](CCCNC(=N)N)C(=O)N[C@H](CC(C)C)C(=O)N[C@H](CCCNC(=N)N)C(=O)N[C@H](Cc1ccc2ccccc2c1)C(=O)N[C@H](CCCNC(=N)N)C(=O)N[C@H](CCCNC(=N)N)C(N)=O` [LV-1] (Ac-[dR][dR][dL][dL][d2Nal][dR][dL][dR][d2Nal][dR][dR]-NH2), in the data set on rabbit red blood cells, the “MHC (minimum hemolytic concentration, lowest concentration causing 10% hemolysis)” value is >1000 µg/mL. The “MIC against Staphylococcus aureus (NRS 384)” value (“MIC … (NRS 384)” for short) in data set [1] stood at 1 µg/mL (≈ 0.578 µM). The “MIC Shigella flexneri ATCC 12022” value in data set [2] was determined as 4 µg/mL (≈ 2.31 µM). In addition, in data set [3] (0.2 mg/kg gavage), the “Number of mice that died on each day after infection: day 4” value (from here on “Number of mice that died … day 4”) was found to be 0 Mouse, the “Number of mice that died on each day after infection: day 5” value (shortened to “Number of mice that died … day 5”) worked out at 3 Mouse, the “Number of mice that died on each day after infection: day 6” value (“Number of mice that died … day 6” below) worked out at 1 Mouse and the “Number of mice that died on each day after infection: day 7” value (from here on “Number of mice that died … day 7”) turned out to be 0 Mouse. In data set [3] (0.2 mg/kg gavage), the “Number of mice that died on each day after infection: day 8” value (shortened to “Number of mice that died … day 8”) was 1 Mouse and the “Average survival times (Days)” value is given as 9.9** Days. In addition, in data set [3] (1 mg/kg gavage), the “Number of mice that died … day 4” value is 0 Mouse, the “Number of mice that died … day 5” value was determined as 0 Mouse, the “Number of mice that died … day 6” value was 1 Mouse and the “Number of mice that died … day 7” value is reported as 1 Mouse. For the same compound, in data set [3] (1 mg/kg gavage), the “Number of mice that died … day 8” value was determined as 1 Mouse and the “Average survival times (Days)” value is 11.9**** Days. For the same compound, in data set [3] (5 mg/kg gavage), the “Number of mice that died … day 4” value worked out at 0 Mouse, the “Number of mice that died … day 5” value stood at 0 Mouse, the “Number of mice that died … day 6” value was determined as 2 Mouse and the “Number of mice that died … day 7” value was 1 Mouse. In data set [3] (5 mg/kg gavage), the “Number of mice that died … day 8” value is 0 Mouse and the “Average survival times (Days)” value is recorded as 11.7**** Days. The “survival time of mice infected with Escherichia coli” value in data set [3] is on record as “superior to those of the Levofloxacin group”.
On to `CC(=O)N[C@H](CCCNC(=N)N)C(=O)N[C@H](CCCCN)C(=O)N[C@H](CC(C)C)C(=O)N[C@H](CC(C)C)C(=O)N[C@H](Cc1ccccc1)C(=O)N[C@H](CCCNC(=N)N)C(=O)N[C@H](CC(C)C)C(=O)N[C@H](CCCCN)C(=O)N[C@H](Cc1ccccc1)C(=O)N[C@H](CCCNC(=N)N)C(=O)N[C@H](CCCCN)C(N)=O` [LV-2] (Ac-[dR][dK][dL][dL][dF][dR][dL][dK][dF][dR][dK]-NH2), for which, in the data set on rabbit red blood cells, the “MHC (minimum hemolytic concentration, lowest concentration causing 10% hemolysis)” value is >1000 µg/mL. Also, the “MIC … (NRS 384)” value in data set [1] was determined as 1 µg/mL (≈ 0.647 µM). In addition, the “MIC Shigella flexneri ATCC 12022” value in data set [2] turned out to be 2 µg/mL (≈ 1.29 µM). For the same compound, in data set [3] (0.2 mg/kg gavage), the “Number of mice that died … day 4” value is given as 1 Mouse, the “Number of mice that died … day 5” value turned out to be 2 Mouse, the “Number of mice that died … day 6” value came to 1 Mouse and the “Number of mice that died … day 7” value is 1 Mouse. In data set [3] (0.2 mg/kg gavage), the “Number of mice that died … day 8” value turned out to be 1 Mouse and the “Average survival times (Days)” value was 9.1** Days. In addition, in data set [3] (1 mg/kg gavage), the “Number of mice that died … day 4” value was 0 Mouse, the “Number of mice that died … day 5” value was found to be 2 Mouse, the “Number of mice that died … day 6” value stood at 1 Mouse and the “Number of mice that died … day 7” value was 0 Mouse. Moreover, in data set [3] (1 mg/kg gavage), the “Number of mice that died … day 8” value is 0 Mouse and the “Average survival times (Days)” value was 11.4**** Days. In data set [3] (5 mg/kg gavage), the “Number of mice that died … day 4” value is 0 Mouse, the “Number of mice that died … day 5” value came out at 3 Mouse, the “Number of mice that died … day 6” value was determined as 1 Mouse and the “Number of mice that died … day 7” value is recorded as 0 Mouse. Further, in data set [3] (5 mg/kg gavage), the “Number of mice that died … day 8” value stood at 0 Mouse and the “Average survival times (Days)” value is 10.5*** Days. In data set [3], the “survival time of mice infected with Escherichia coli” value is “superior to those of the Levofloxacin group”.
Turning to `CC(=O)N[C@H](CCCNC(=N)N)C(=O)N[C@H](CCCCN)C(=O)N[C@H](CC(C)C)C(=O)N[C@H](CC(C)C)C(=O)N[C@H](Cc1ccccc1)C(=O)N[C@H](CCCNC(=N)N)C(=O)N[C@H](CC(C)C)C(=O)N[C@H](CCCCN)C(=O)N[C@H](Cc1ccc2ccccc2c1)C(=O)N[C@H](CCCNC(=N)N)C(=O)N[C@H](CCCCN)C(N)=O` [LV-3] (Ac-[dR][dK][dL][dL][dF][dR][dL][dK][d2Nal][dR][dK]-NH2), in the data set with rabbit red blood cells, the “MHC (minimum hemolytic concentration, lowest concentration causing 10% hemolysis)” value is >1000 µg/mL. Further, in data set [1], the “MIC … (NRS 384)” value was 1 µg/mL (≈ 0.627 µM). Moreover, the “MIC Shigella flexneri ATCC 12022” value in data set [2] was found to be 2 µg/mL (≈ 1.25 µM). Also, in data set [3] (1 mg/kg gavage), the “Number of mice that died … day 4” value came out at 1 Mouse, the “Number of mice that died … day 5” value was 0 Mouse, the “Number of mice that died … day 6” value was 1 Mouse and the “Number of mice that died … day 7” value is on record as 2 Mouse. Also, in data set [3] (1 mg/kg gavage), the “Number of mice that died … day 8” value was determined as 1 Mouse and the “Average survival times (Days)” value is reported as 10.2*** Days.
For the compound `CC(=O)N[C@H](CCCNC(=N)N)C(=O)N[C@H](CCCCN)C(=O)N[C@H](CC(C)C)C(=O)N[C@H](CC(C)C)C(=O)N[C@H](Cc1ccc2ccccc2c1)C(=O)N[C@H](CCCNC(=N)N)C(=O)N[C@H](CC(C)C)C(=O)N[C@H](CCCCN)C(=O)N[C@H](Cc1ccccc1)C(=O)N[C@H](CCCNC(=N)N)C(=O)N[C@H](CCCCN)C(N)=O` [LV-4] (Ac-[dR][dK][dL][dL][d2Nal][dR][dL][dK][dF][dR][dK]-NH2), the “MHC (minimum hemolytic concentration, lowest concentration causing 10% hemolysis)” value with rabbit red blood cells was >1000 µg/mL. The “MIC … (NRS 384)” value in data set [1] amounted to 1 µg/mL (≈ 0.627 µM). Further, in data set [2], the “MIC Shigella flexneri ATCC 12022” value was found to be 4 µg/mL (≈ 2.51 µM). Also, in data set [3] (1 mg/kg gavage), the “Number of mice that died … day 4” value came to 0 Mouse, the “Number of mice that died … day 5” value came to 1 Mouse, the “Number of mice that died … day 6” value was 2 Mouse and the “Number of mice that died … day 7” value is recorded as 2 Mouse. Besides, in data set [3] (1 mg/kg gavage), the “Number of mice that died … day 8” value came to 1 Mouse and the “Average survival times (Days)” value is on record as 9.5** Days.
Consider `CC(=O)N[C@H](CCCNC(=N)N)C(=O)N[C@H](CCCCN)C(=O)N[C@H](CC(C)C)C(=O)N[C@H](CC(C)C)C(=O)N[C@H](Cc1ccc(F)cc1)C(=O)N[C@H](CCCCN)C(=O)N[C@H](CC(C)C)C(=O)N[C@H](CCCCN)C(=O)N[C@H](Cc1ccc(F)cc1)C(=O)N[C@H](CCCCN)C(=O)N[C@H](CCCNC(=N)N)C(N)=O` [LV-5] (Ac-[dR][dK][dL][dL][dPhe(4-F)][dK][dL][dK][dPhe(4-F)][dK][dR]-NH2), for which the “MHC (minimum hemolytic concentration, lowest concentration causing 10% hemolysis)” value in the data set on rabbit red blood cells is >1000 µg/mL. Moreover, in data set [1], the “MIC … (NRS 384)” value worked out at 1 µg/mL (≈ 0.644 µM). Besides, the “MIC Shigella flexneri ATCC 12022” value in data set [2] was determined as 2 µg/mL (≈ 1.29 µM). In data set [3] (1 mg/kg gavage), the “Number of mice that died … day 4” value is listed as 1 Mouse, the “Number of mice that died … day 5” value is on record as 2 Mouse, the “Number of mice that died … day 6” value was 2 Mouse and the “Number of mice that died … day 7” value was determined as 1 Mouse. Besides, in data set [3] (1 mg/kg gavage), the “Number of mice that died … day 8” value is reported as 0 Mouse and the “Average survival times (Days)” value is on record as 8.9** Days.
